Key:
[1] = test system: IL-8 release in d-U937 cells; experiment: LPS-induced IL-8 release in d-U937 cells; type: cell-based, human; conditions: dU937 cells
Description: U937 cells, a human monocytic cell line, were differentiated into macrophage-type cells by incubation with PMA (100 ng/mL) for 48 to 72 hr. […] The supernatant was collected for determination of TNFα and IL-8 concentrations by sandwich ELISA (Duo-set, R&D systems). […] The relative 50% effective concentration (REC50) was determined from the resultant concentration-response curve. The inhibition of IL-8 production was calculated at each concentration of test compound by comparison with vehicle control.

[2] = test system: HRV IL-8 release (BEAS2B); experiment: Rhinovirus-induced IL-8 release in BEAS2B cells; type: cell-based, human; conditions: at 0.04 μg/mL
Description: Human rhinovirus RV16 was obtained from the American Type Culture Collection (Manassas, Va.). Viral stocks were generated by infecting Hela cells with HRV until 80% of the cells were cytopathic.
BEAS2B cells were infected with HRV at an MOI of 5 and incubated for 2 hr at 33° C. with gentle shaking for to promote absorption. The cells were then washed with PBS, fresh media added and the cells were incubated for a further 72 hr. The supernatant was collected for assay of IL-8 concentrations using a Duoset ELISA development kit (R&D systems, Minneapolis, Minn.).
The level of cell surface ICAM-1 expression was determined by cell-based ELISA. At 72 hr after infection, cells were fixed with 4% formaldehyde in PBS. After quenching endogenous peroxidase by adding 0.1% sodium azide and 1% hydrogen peroxide, wells were washed with wash-buffer (0.05% Tween in PBS: PBS-Tween). […] The ICAM-1 signal was detected by adding substrate and reading at 450 nm with a reference wavelength of 655 nm using a spectrophotometer. The wells were then washed with PBS-Tween and total cell numbers in each well were determined by reading absorbance at 595 nm after Crystal Violet staining and elution by 1% SDS solution. The measured OD450-655 readings were corrected for cell number by dividing with the OD595 reading in each well. […]

[3] = test system: TNFα release in THP-1 cells; experiment: LPS-induced TNFα release in THP-1 cells; type: cell-based, human; conditions: THP1 cells
Description: THP-1 cells, a human monocytic cell line, were stimulated with 3 μg/mL of LPS (from E. Coli; 0111:B4, Sigma) for 4 hr and the supernatant collected for determination of the TNFα concentration by sandwich ELISA (Duo-set, R&D systems). The inhibition of TNFα production was calculated at each concentration by comparison with vehicle control.

[4] = test system: ICAM-1 expression in BEAS2B cells; experiment: Poly I:C-induced ICAM-1 expression in BEAS2B cells; type: cell-based, human; conditions: read-out: PolyIC/ICAM1 IC50 (BEAS2B)
Outline: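 BEAS2B human bronchial epithelial cells pre-incubated 2 h with compound, then transfected with 1 μg/mL poly I:C plus Oligofectamine. After 18 h, surface ICAM-1 measured by cell-based ELISA (OD450–655), normalised to crystal violet cell count (OD595). Inhibition calculated against vehicle control.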

[5] = test system: d-U937 cells; experiment: Cell viability: MTT assay; type: cell-based, human; conditions: 1 μg/mL
Outline: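 Differentiated U937 cells exposed to compound at 1 or 10 μg/mL final, either 4 h in 5% FCS RPMI1640 or 24 h in 10% FCS RPMI1640. After medium replacement, MTT added 1 h, formazan dissolved in DMSO, A550 read. % viability loss vs 0.5% DMSO vehicle; apparent viability gain shown as negative %.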

[6] = test system: TNFα release in d-U937 cells; experiment: LPS-induced TNFα release in d-U937 cells; type: cell-based, human; conditions: dU937 cells; relative to 10 μg/mL BIRB796; read-out: LPS Induced Release TNFα REC50 (dU937)
Description: U937 cells, a human monocytic cell line, were differentiated into macrophage-type cells by incubation with PMA (100 ng/mL) for 48 to 72 hr. Cells were pre-incubated with final concentrations of test compound for 2 hr and were then stimulated with LPS (0.1 μg/mL; from E. Coli: 0111:B4, Sigma) for 4 hr. The supernatant was collected for determination of TNFα and IL-8 concentrations by sandwich ELISA (Duo-set, R&D systems). […] The relative 50% effective concentration (REC50) was determined from the resultant concentration-response curve. The inhibition of IL-8 production was calculated at each concentration of test compound by comparison with vehicle control.

[7] = test system: HRV16; experiment: HRV16 induced CPE in MRC5 cells; type: cell-based, human rhinovirus; conditions: at 0.04 μg/mL
Description: The supernatants were aspirated, and then fresh media added followed by incubation for 4 days. Where appropriate, cells were pre-incubated with compound or DMSO for 2 hr, and the compounds and DMSO added again after washout of the virus.
The percentage inhibition for each well was calculated. The IC50 value was calculated from the concentration-response curve generated by the serial dilutions of the test compounds.

**Q.** With `Cc1ccc(-n2nc(C(C)(C)C)cc2NC(=O)Nc2ccc(Oc3ccnc(Nc4ccccc4Cl)n3)c3ccccc23)cc1` [Example 19, 1-(3-(tert-butyl)-1-(p-tolyl)-1H-pyrazol-5-yl)-3-(4-((2-((2-chlorophenyl)amino)pyrimidin-4-yl)oxy)naphthalen-1-yl)urea] as the compound, how does the IC50 [1] read?
**A.** 14 nM

**Q.** And the “HRV IL-8 (BEAS2B) % inhibition” value [2]?
**A.** 100%

**Q.** And the IC50 [3]?
**A.** 192 nM

**Q.** And the IC50 [4]?
**A.** 43 nM

**Q.** What about the “MTT Assay Cell viability at time point in d-U937 Cells” value ([5]; 4 h) of the same compound?
**A.** −ve (−ve and +ve indicate the value is below and above respectively, the no significant effect threshold defined as 30% inhibition at 1 μg/mL at the time point indicated)

**Q.** What about the “MTT Assay Cell viability at time point in d-U937 Cells” value ([5]; 24 h) of the same compound?
**A.** −ve (−ve and +ve indicate the value is below and above respectively, the no significant effect threshold defined as 30% inhibition at 1 μg/mL at the time point indicated)

**Q.** What about the EC50 [6] of the same compound?
**A.** 13 nM

**Q.** And the “HRV CPE (MRC5) % inhibition” value [7]?
**A.** NE (NE: no effect, ≦0% at 0.04 μg/mL)

— US9724347B2, “1-pyrazolyl-3-(4-((2-anilinopyrimidin-4-yl)oxy)napththalen-1-yl) ureas as P38 MAP knase inhibitors” (Respivert Ltd., priority 2011, dated 2017)
